The values below are quoted from earlier work in patent US11213604B2, “Composition for dressing cutaneous lesions and manufacturing method thereof” (priority 2016, dated 2022).

The test system of the data set is cutaneous leishmanial ulcers. The settings on record: protocols (1), (3), (2) of Stahl et al., BMC Infectious Diseases 2014.

As for sodium stilbogluconate, the Median healing time was 9 weeks.
